Entries after “also recorded” stand apart in the source; their conditions may differ.
What was measured:
[1] = Time-dependent DOX release from prodrugs in presence of H2O2 (LCMS); type: physicochemical; details: prodrug 10 μM, H2O2 10 μM, ammonium bicarbonate buffer 0.1 M pH 7.4, room temperature, over two hours
Procedure: FIG. 1. Time-course for DOX release from prodrugs (10 μM) in ammonium bicarbonate buffer (0.1 M, pH 7.4) at room temperature and in the presence of H2O2 (10 μM). A calibration curve was used to determine the concentration of free DOX at each time point by LCMS. Plotted as the mean±standard error of the mean (SEM) from three independent experiments.
To confirm this reactivity, we incubated c1 (10 μM) with H2O2 (10 μM) at room temperature in ammonium bicarbonate buffer (0.1 M, pH 7.4). At various time points, an aliquot was removed and analyzed by LCMS. Using a calibration curve, we determined the percentage of released DOX over the course of two hours. […] For comparison, we also assessed the reactivity of c2 towards the same concentration of peroxides. Like c1, c2 also functioned as an H2O2-activated DOX prodrug, but with faster kinetics, as quantitative release of free DOX was realized within 60 min.
A stock solution of c1 (or c2, 10 mM) in DMSO and H2O2 (10 mM) in ammonium bicarbonate buffer (0.1M, pH 7.4) were prepared immediately prior to use. […] At various time points (0 min, 10 min, 35 min, 60 min, 80 min, 100 min, 120 min), a 1 mL (inject volume 60 μL) aliquot was removed and analyzed by LC-MS (using a C18 analytical column and eluting at 0.4 mL/min with a linear gradient (20-90% v/v) MeOH/H2O (0-2 min), followed by 90% v/v MeOH/H2O (2-19 min)). […]

H9C2 cardiomyoblasts = assay: Uptake into H9C2 cardiomyoblasts by live-cell confocal microscopy; type: cell-based, rat
Procedure: FIG. 4. Uptake of DOX and prodrugs c1 and c2 by H9C2 cardiomyoblasts. H9C2 cells cultures grown overnight on chambered coverslips in media with 10% serum were switched to Fluorobrite DMEM imaging media supplemented with 5% serum and prepared for live-cell imaging on a Zeiss LSM 880 confocal microscope, then 10 µM of c1, c2, or DOX was added and images were taken every 10 min (averaged every 30 min) for 18 h. Approximately 20 cells present in each field of view were averaged for each sample and time point; normalized and averaged data from two replicates each±SEM were included for c1 and DOX. An earlier independent trial yielded very similar results (Fig. S1).
Uptake of DOX and prodrugs into H9C2 cardiomyoblasts. Before comparing the biological effects of treatments by DOX and prodrugs, it was important to know their time dependence of accumulation into the H9C2 cardiomyoblasts under investigation. For this, confocal microscopy of live cells in culture was used to track in real time the accumulation of the fluorescent molecules into the cells, allowing direct comparisons between c1, c2 and Dox. […] Thus, any biological effects observed using c1 rather than DOX will not be due to limited cellular uptake.
To evaluate drug uptake, H9C2 cells were plated at a density of 20,000 per well on 24 well #1.5 polymer chambered coverslips (Ibidi) in media including 10% FBS and allowed to adhere for ~20 h. Prior to imaging analysis, the media was replaced with Fluorobrite DMEM imaging media (Gibco) supplemented with 5% FBS. To 1 mL of media in each well was added either vehicle (DMSO), or a 20 mM stock solution of c1, c2, or DOX to give final concentrations of 10 or 20 µM drug and 0.1% DMSO. […] DOX and the prodrugs were detected with excitation by a 458 nm laser at 0.3% and emission from 535-648 nm.
Each position consisted of a 3 slice z-stack that was compressed with a maximum intensity projection for analysis. […] The mean intensity for both channels was calculated, normalized, and then averaged to 30 min time points.

caspase-3 = assay: Caspase-3 cleavage immunoblot in H9C2 cells; details: 24 h
Procedure: FIG. 6. […] H9C2 cells in culture were treated for 24 hr with c1, c2, DOX or vehicle (DMSO), then harvested into lysis buffer and immunoblotted for caspase-3. Data analyzed by ImageJ were used to assess the percent of the two bands present as the lower band.
We next evaluated apoptotic signaling through caspase-3 cleavage at 24 h to compare the experimental compounds.
To evaluate levels of caspase cleavage (using an antibody recognizing both cleaved and uncleaved, Cell Signaling, cat #9662), Nrf2 (antibody from Thermo Fisher, cat #PA5-27882), and HO-1 (antibody from Proteintech, cat #10701-1-AP), H9C2 cells were plated at a density of 450,000 per well in a 24-well plate, then treated 24 h later with 10 or 20 µM DOX and incubated another 24 h before harvesting. For some samples, 100 mM hydroxocobalamin (HO-Cbl) was added 5 min before drug treatment. Cells were harvested by removing media (and recovering any non-adherent cells by centrifugation for 5 min at 10,600×g, discarding the supernatant), and combining that with the 120 μL of lysis buffer added to each well. Lysis buffer [50 mM Tris-HCl at pH 8.0, with 100 mM NaCl, 100 µM diethylene triamine pentaacetic acid (DTPA), 20 mM β-glycerophosphate, 0.1% SDS, 0.5% Na Desoxycholate, and 0.5% Triton-X-100] was prepared by freshly adding protease and phosphatase inhibitors before use (1 mM PMSF, 10 μg/mL aprotinin, 1 mM Na3VO4, 10 mM NaF and 10 μg/mL leupeptin). Samples were further incubated on ice for 30 min, then centrifuged at high speed (20,800×g for 10 min) to remove cell debris, and supernatants were mixed with 5×SDS protein sample buffer for Western blot analysis following resolution of 40 μg per sample on 10% SDS-polyacrylamide gels. Protein concentrations of supernatants were determined using a BCA assay (Pierce). Antibodies were used at dilutions of 1:1000 (for HO-1 and caspase-3) or 1:3000 (for Nrf2).

Nrf2 = Nrf2 and HO-1 immunoblots in H9C2 cells; type: cell-based, rat; details: H9C2, relative to DMSO vehicle
Description: The bar graphs below represent the mean±SEM. Results were statistically different between c1 and DOX in both cases (p=0.002 and p=0.019), and more marginally so between c1 and DMSO (p=0.011 and p.=0.025), for Nrf2 and HO-1, respectively.

mitochondrial ROS = assay: Mitochondrial ROS in cardiomyoblasts; details: compared with DOX

COc1cccc2c1C(=O)c1c(O)c3c(c(O)c1C2=O)C[C@@](O)(C(=O)CO)C[C@@H]3O[C@H]1C[C@H](NC(=S)OCc2ccc(B3OC(C)(C)C(C)(C)O3)cc2)[C@H](O)[C@H](C)O1 [c1]
percentage of released DOX [1]: greater than 70% | time to maximal signal (cell accumulation) (H9C2 cardiomyoblasts; H9C2 cells, 10 μM, fluorescence): ~ 2 h | accumulation in cells compared with DOX (H9C2 cardiomyoblasts; imaging over 18 h): accumulated rapidly | caspase-3 cleavage with H2S scavenger hydroxocobalamin (caspase-3; H9C2, 10 μM drug, 100 mM hydroxocobalamin added 5 min prior): much more cleavage of caspase-3 than in its absence | caspase-3 cleavage (caspase-3; H9C2, 10 or 20 μM): neither c1 nor c2 at either 10 or 20 UM caused notable caspase-3 cleavage | HO-1 expression (immunoblot) (Nrf2): largely preserved Nrf2 activation and HO-1 expression; also recorded: only moderately suppressive | Nrf2 activation (immunoblot) (Nrf2): largely preserved Nrf2 activation and HO-1 expression; also recorded: only moderately suppressive | mitochondrial ROS levels (mitochondrial ROS): lower levels of mitochondrial ROS

Source: patent US20260256922A1, “PRODRUGS USEFUL FOR REDUCING ANTHRACYCLINE CARDIOTOXICITY” (WAKE FOREST UNIVERSITY HEALTH SCIENCES, priority 2022, published 2026)
